Two compounds from patent publication US20230158034A1, “CO-TREATMENT WITH CDK4/6 AND CDK2 INHIBITORS TO SUPPRESS TUMOR ADAPTATION TO CDK2 INHIBITORS” (Pfizer Inc., priority 2020, published 2023) can be followed below.

Experiment [1] deals with Rb, Nucleolin, Cdc6 and Nbs1 phosphorylation. Description: Immunofluorescence and western blotting of endogenous CDK2 substrates. Format: cell-based, human. As to conditions: 10 μM 3 MB-PP1 for 1 hr, RPE-hTERT CDK2^F80G/F80G cells. The procedure:
Cells were fixed for 15 minutes with freshly prepared 4% paraformaldehyde, washed twice with PBS, and incubated with a blocking buffer (3% BSA in PBS) for 1 hr at room temperature. Permeabilization was carried out using 0.2% Triton-X 100 for 15 min at 4° C. Primary antibody was diluted in blocking buffer and incubated with cells overnight at 4° C. followed by three washes with 1×PBS. Secondary antibodies conjugated to Alexa Fluor 488, Alexa Fluor 546 or Alexa Fluor 647 were incubated for 1 hr followed by three washes with 1×PBS. DNA was stained using Hoechst 33342 dye for 10 minutes at 1:10000 (ThermoFisher H3570). Images were acquired on a Nikon Eclipse Ti or Ti2 microscope with a 10×0.45 NA objective. DNA content was determined by taking the integrated intensity of each cell's Hoechst signal. Cells were delineated as 3-4N DNA content by plotting a histogram of DNA content and drawing a threshold and the end of the 2N peak.
Lysates were prepared using 1×LDS sample buffer (ThermoFisher NP007) using equal numbers of cells. Proteins were separated using NuPAGE precast polyacrylamide gels (ThermoFisher NP0301). Total protein was quantified using Azure Red Dye (Azure Biosystems AC2124) and was used to normalize the signal from antibodies of interest. Primary antibodies used are specified under the “Antibodies” section. HRP-conjugated or IR700 and IR800 labeled fluorescent secondary antibodies were used for visualization (Cell Signaling Technology 7074 and 7076).
For orientation: In western blotting, separated proteins are transferred to a membrane and probed.

The test system of experiment [2] is CDK2 activity (DHB sensor phosphorylation). Kind of experiment: DHB-based CDK2 activity sensor, single-cell time-lapse imaging (C/N ratio). Details: species or system human. From the text: (§1) The DHB sensor is localized to the nucleus when it is not phosphorylated. Upon phosphorylation, the nuclear localization signal is masked, the nuclear export signal is unmasked, and the sensor steadily translocates to the cytoplasm in response to increasing CDK2 activity (FIG. 1A). Thus, kinase activity can be quantified by the ratio of the cytoplasmic to nuclear fluorescence intensity (C/N ratio) of the DHB sensor. […] Asynchronously cycling cells were first imaged for approximately 20 hr in the absence of drug to establish the cell-cycle phase of each cell; the movie was then paused to add drug, and then imaging was continued for another 1-2 days. Because the cells were cycling asynchronously, all cell-cycle phases with one drug treatment were sampled. This allowed the present inventors to computationally isolate traces for cells that received drug at any time since the completion of anaphase.
(§2) Cells were seeded at least 24 hr prior to imaging in phenol-red-free full-growth medium in glass-bottom 96-well plates (CellVis P96-1.5H-N) that were coated with collagen prior to seeding. The seeding density was chosen such that the cells would remain sub-confluent until the end of the imaging period. Cells were first imaged for 16-20 hr in full-growth media without drug. The movie was then briefly paused and the full-growth media was replaced with full-growth media containing drug at the desired concentration. The plate was then re-inserted into the microscope and aligned to its prior position and imaging was continued for an additional 24-48 hr. Images were acquired every 12 min (for MCF10A or RPE-hTERT) or every 20 min (for MCF7 or OVCAR3) on a Nikon Eclipse Ti or Ti2 microscope with a 10×0.45 NA objective in a humidified, 37° C. chamber at 5% CO2. Exposure times for all movies for all channels were kept under 500 ms per timepoint to minimize phototoxicity. Cell tracking was performed using published MATLAB scripts (Cappell et al., 2016), as described previously (Arora et al., 2017). The tracking code is available for download at https://github.com/scappell/Cell_tracking. Cell counts over time were obtained by counting the number of segmented nuclei in each frame of the movie.
Asynchronously cycling cells that divided and received drug treatments during the imaging period were initially segmented into categories based on the cells' time of anaphase relative to the time of drug addition. These cells were then additionally subcategorized based on their DHB cytoplasmic/nuclear (C/N) ratio after the mitotic event. C/N ratio was calculated by quantifying the ratio of cytoplasmic to nuclear mean DHB fluorescence, with the cytoplasmic component calculated as the mean of the top 50th percentile of a ring of pixels outside of the nuclear mask.
Cells were classified as CDK2^inc if the DHB C/N ratio was above 0.5 units 3 hr after anaphase, otherwise they were classified as CDK2^low. Figure legends indicate whether only CDK2^inc cells or whether all cells are plotted. The median of the single-cell traces in a subcategory was then used to create median trace with 95% confidence interval representative of the particular subcategory. All cell trace analysis was done using custom MATLAB scripts and code is available upon request.

Experiment [3] relates to MCF10A, RPE-hTERT, MCF7 and OVCAR3 cells. Description: Cell-cycle progression, mitosis and proliferation by time-lapse imaging. Format: cell-based, human. As to conditions: 1 μM palbociclib (after the upcoming mitosis) or 9 μM RO3306 (toward end of cell cycle), MCF10A.
Description: as §1, §2

Take `Cc1cccc(Cc2nn(C(C)(C)C)c3ncnc(N)c23)c1` [3 MB-PP1, 1-(tert-butyl)-3-(3-methylbenzyl)-1H-pyrazolo[3,4-d]pyrimidin-4-amine]: the Nbs1 phosphorylation entry in experiment [1] is “loss of Nbs1 phosphorylation”. Further, the DHB sensor phosphorylation entry in experiment [2] (10 μM 3 MB-PP1, RPE-hTERT CDK2^F80G/F80G cells) is reported as “reduction in DHB sensor phosphorylation that quickly rebounded”; in experiment [2] (10 μM 3 MB-PP1, wild-type RPE-hTERT cells), “not affected”.

Take `O=C1NC(=NCc2cccs2)S/C1=C\c1ccc2ncccc2c1` [RO3306]: in experiment [3], the cell-cycle arrest entry is on record as “G2 arrest”. Also, the “DHB phosphorylation in RPE-hTERT CDK2^F80G/F80G cells as compared to wild-type RPE-hTERT cells” value in experiment [2] (9 μM RO3306) is recorded as “much greater drop in DHB phosphorylation”. Also, in experiment [2] (9 μM RO3306, MCF10A), the “effect on DHB sensor phosphorylation” value was “minimal immediate effect”.
